According to ChEMBL document CHEMBL4477268, “2-(4-Fluorophenyl)-quinazolin-4(3H)-one as a novel tyrosinase inhibitor: Synthesis, inhibitory activity, and mechanism” (Bioorg Med Chem, 2016):
Active and inactive are the calls of the source. No cut-off for these calls is given here.

Columns and labels:
[1] = target: T1, Tyrosinase (Agaricus bisporus) (UniProt O42713); assay: (§1) Inhibition of diphenolase activity of mushroom tyrosinase using L-DOPA as substrate by spectrophotometric analysis
T1 sequence (whole entry): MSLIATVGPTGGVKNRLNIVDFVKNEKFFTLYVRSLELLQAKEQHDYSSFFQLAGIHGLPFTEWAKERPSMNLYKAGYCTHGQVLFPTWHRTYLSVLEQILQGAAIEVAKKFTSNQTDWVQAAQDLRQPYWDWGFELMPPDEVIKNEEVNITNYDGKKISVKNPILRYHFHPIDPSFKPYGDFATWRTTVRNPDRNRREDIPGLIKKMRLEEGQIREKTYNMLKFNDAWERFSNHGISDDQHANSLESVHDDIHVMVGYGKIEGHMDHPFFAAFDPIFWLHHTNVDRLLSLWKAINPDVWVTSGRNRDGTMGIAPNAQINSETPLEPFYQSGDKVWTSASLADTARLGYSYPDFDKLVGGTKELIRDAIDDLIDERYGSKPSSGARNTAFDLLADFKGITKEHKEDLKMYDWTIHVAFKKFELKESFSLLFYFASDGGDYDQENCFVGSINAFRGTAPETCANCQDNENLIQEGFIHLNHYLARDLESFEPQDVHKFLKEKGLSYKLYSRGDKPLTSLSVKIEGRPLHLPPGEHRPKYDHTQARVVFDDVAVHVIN

Tyrosinase [2] = target: T2, Tyrosinase (Agaricus bisporus, UniProt O42713); assay: as §1
T2 sequence (O42713 whole entry): T1 sequence (whole entry)

Tyrosinase [3] = target: T2, Tyrosinase; assay: Mixed-type reversible inhibition of diphenolase activity of mushroom tyrosinase using L-DOPA as substrate by Lineweaver-Burk double reciprocal-plot analysis
[4] = Binding affinity to tyrosine assessed as decrease in maximum fluorescence emission intensity of tyrosine at 48 uM by spectrophotometric analysis; set-up: scale not given: the % may be the effect or the level left
[5] = Binding affinity to L-DOPA assessed as decrease in maximum fluorescence emission intensity of L-DOPA at 48 uM by spectrophotometric analysis; set-up: scale not given: the % may be the effect or the level left
Tyrosinase [6] = target: T2, Tyrosinase; assay: Mixed-type reversible inhibition of diphenolase activity of mushroom tyrosinase assessed as enzyme-substrate complex using L-DOPA as substrate by Lineweaver-Burk double reciprocal plot analysis
[7] = target: T1, Tyrosinase (Agaricus bisporus); assay: Binding affinity to mushroom tyrosinase assessed as reduction in fluorescence intensity at 0 to 10 uM by fluorescence-spectrophotometric analysis; set-up: scale not given: the % may be the effect or the level left
[8] = target: T1, Tyrosinase (Agaricus bisporus); assay: Binding affinity to mushroom tyrosinase assessed as induction of red shift in spectra by fluorescence-spectrophotometric analysis
[9] = target: T1, Tyrosinase (Agaricus bisporus); assay: Binding affinity to mushroom tyrosinase assessed as reduction in fluorescence intensity by spectrophotometric analysis

Structure (SMILES): Oc1nc(-c2ccc(F)cc2)nc2ccccc12
- inhibition [1]: Dose-dependent effect
- IC50 (Tyrosinase [2]): 120 µM
- Ki (Tyrosinase [3]): 703 µM
- Activity [4]: 53.1%
- Activity [5]: 44.8%
- Ki (Tyrosinase [6]): 222 µM
- Activity [7]: 77.2%
- Activity [8]: Active
- Activity [9]: Dose-dependent effect
